For experiment [1], the system named is Propionibacterium acnes. Briefly: Antibacterial activity. It is filed as cell-based.
The subject of experiment [2] is Staphylococcus aureus. Put plainly: Antibacterial activity. It counts as cell-based.

Structures are written as SMILES.

Take `CC1(C)CC(C)(C)CC(C)(N)C1` [neramexane, 1-amino-1,3,3,5,5-pentamethylcyclohexane]: the antibacterial activity entry in experiment [1] and in experiment [2] was “exhibits antibacterial activity” throughout.
